row,SMILES,melting point [°C]
1,O=C(NCCCCN1CCN(c2ccccc2)CC1)c1cc2ccccc2o1,149 to 150
2,Cc1cccc(N2CCN(CCCCNC(=O)c3cc4ccccc4o3)CC2)c1C,151 to 152
3,COc1cccc(N2CCN(CCCCNC(=O)c3cc4ccccc4o3)CC2)c1,104 to 105
4,Cc1cccc(N2CCN(CCCCNC(=O)c3cc4ccccc4o3)CC2)n1,107 to 109
5,O=C(NCCCCN1CCN(c2cnc3ccccc3c2)CC1)c1ccccc1,124 to 125
6,O=C(NCCCCN1CCN(c2cnc3ccccc3c2)CC1)c1cc2ccccc2cn1,153 to 154
7,O=C(NCCCCN1CCN(c2ccccc2)CC1)c1cccnc1,119 to 120
8,Cc1cccc(N2CCN(CCCCNC(=O)c3ccccc3)CC2)n1,102 to 103
9,COc1cccc(N2CCN(CCCCNC(=O)c3ccccc3)CC2)n1,120 to 121

# Further lines, results first:
row,melting point [°C],SMILES
1,180 to 181,"O=C1c2cc3ccccc3n2CCN1CCCCN1CCN(c2cccc(Cl)c2)CC1 [Compound 1-9, 2-[4-[4-(3-Chlorophenyl)piperazin-1-yl]butyl]-3,4-dihydropyrazino[1,2-a]indol-1(2H)-one]"
2,155 to 156,Cc1cccc(N2CCN(CCCCN3CCn4c(cc5ccccc54)C3=O)CC2)c1 [Compound 1-11]
3,94 to 95,"Cc1cccc(N2CCN(CCCCCOc3cc4ccccc4cn3)CC2)c1 [Compound 1-12, 3-[5-(4-m-Tolylpiperazin-1-yl)pentyloxy]isoquinoline]"
4,111 to 112,"COc1cccc(N2CCN(CCCCNC(=O)c3ccccc3)CC2)c1 [Compound 1-45, N-(4-(4-(3-Methoxyphenyl)piperazin-1-yl)butyl)benzamide]"
5,126 to 127,"Cc1cccc(N2CCN(CCCCNC(=O)c3ccccc3)CC2)c1 [Compound 1-46, N-(4-(4-m-Tolylpiperazin-1-yl)butyl)benzamide]"

# From US20090238761A1, “Novel Aryl Piperazine Derivatives With Medical Utility” (Universita Degli Studi Di Siena, priority 2005, published 2009)
